One experiment deals with CTG-0121 CRC PDX model. Put plainly: CTG-0121 HER2 positive CRC PDX model, tumor growth inhibition. Type of experiment: in vivo, Mice. As to the method:
(§1) The TGI index is calculated for a particular time point (e.g., a specific number of days into an experiment or clinical trial) according to the following formula: […]
(§2) where “Tx Day 0” denotes the first day that treatment is administered (i.e., the first day that an experimental therapy or a control therapy (e.g., vehicle only) is administered) and “Tx Day X” denotes X number of days after Day 0. […] As a non-limiting example, in an experiment where study day 0 corresponds to “Tx Day 0” and the TGI index is calculated on study day 28 (i.e., “Tx Day 28”), if the mean tumor volume in both groups on study day 0 is 250 mm^3 and the mean tumor volumes in the experimental and control groups are 125 mm^3 and 750 mm^3, respectively, then the TGI index on day 28 is 125%.
(§3) Tucatinib was administered orally at a dose of 50 mg/kg twice per day for 28 days (study days 0-27). […] A vehicle-only group was included as a negative control.

The next experiment has as its system CTG-0784 CRC PDX model. Put plainly: CTG-0784 HER2 positive CRC PDX model, tumor growth inhibition. Type of experiment: in vivo, Mice. As to the method:
as §1, §2, §3

The test system of a further experiment is CTG-0383 CRC PDX model. Put plainly: CTG-0383 HER2 positive CRC PDX model, tumor growth inhibition. Type of experiment: in vivo, Mice. As to the method:
as §1, §2, §3

Experiment [1] deals with CTG-0137 esophageal cancer PDX model. Put plainly: CTG-0137 HER2 positive esophageal cancer PDX model, tumor growth inhibition. It is filed as in vivo, Mice. As to the method: as §1, §2, §3
The test system of experiment [2] is CTG-0138 esophageal cancer PDX model. Put plainly: CTG-0138 HER2 positive esophageal cancer PDX model, tumor growth inhibition. It is filed as in vivo, Mice. As to the method: as §1, §2, §3
For experiment [3], the system named is GXA 3038 gastric cancer PDX model. Put plainly: GXA 3038 HER2 positive gastric cancer PDX model, tumor growth inhibition. Type of experiment: in vivo, Mice. As to the method:
as §1, §2, §3

The subject of experiment [4] is GXA 3039 gastric cancer PDX model. Put plainly: GXA 3039 HER2 positive gastric cancer PDX model, tumor growth inhibition. Type of experiment: in vivo, Mice. As to the method: as §1, §2, §3
Experiment [5] concerns GXA 3054 gastric cancer PDX model. Put plainly: GXA 3054 HER2 positive gastric cancer PDX model, tumor growth inhibition. Type of experiment: in vivo, Mice. The method, then: as §1, §2, §3
For experiment [6], the system named is CTG-0927 HER2 positive cholangiocarcinoma PDX model. Put plainly: CTG-0927 HER2 positive cholangiocarcinoma PDX model, tumor growth inhibition. Type of experiment: in vivo, Mice. Conditions: CTG-0927 cholangiocarcinoma PDX model. As to the method: as §1, §2, §3
The test system of experiment [7] is Calu-3 NSCLC xenograft model. Put plainly: Calu-3 HER2 positive NSCLC xenograft model, tumor growth inhibition. Type of experiment: in vivo, Mice. As to the method:
as §1, §2
(§4) For the Calu-3 study, tucatinib was administered orally at a dose of 50 mg/kg twice per day for 21 days, beginning on study day 7. […] A vehicle-only group was included as a negative control.

In experiment [8] the test system is NCI-H2170 NSCLC xenograft model. Put plainly: NCI-H2170 HER2 positive NSCLC xenograft model, tumor growth inhibition. It is filed as in vivo, Mice. The method, then:
as §1, §2, §4
For the NCI-H2170 study, tucatinib was administered orally at a dose of 50 mg/kg twice per day for 21 days, beginning on study day 18. […] A vehicle-only group was included as a negative control.

In the next experiment the test system is Calu-3 cells. Put plainly: Response of Calu-3 cells to tucatinib in vitro. Type of experiment: cell-based. Conditions: previously demonstrated.
For the next experiment, the system named is NCI-H2170 cells. Put plainly: Response of NCI-H2170 cells to tucatinib in vitro. Type of experiment: cell-based. As to conditions: previously demonstrated.

`Cc1cc(Nc2ncnc3ccc(NC4=NC(C)(C)CO4)cc23)ccc1Oc1ccn2ncnc2c1` [Tucatinib, tucatinib]: the “effect on tumor growth (in words)” value (in the experiment on CTG-0121 CRC PDX model; with CTG-0784 CRC PDX model; in the experiment on CTG-0383 CRC PDX model; in experiment [1]; in experiment [2]; in experiment [3]) was “inhibited tumor growth” throughout. The “effect on tumor growth (in words)” value in experiment [4], in experiment [5], in experiment [6], in [7] and in [8] was “inhibited tumor growth” each time. Also, the “response to tucatinib in vitro” value in the experiment with Calu-3 cells and in the experiment with NCI-H2170 cells was “good responses” throughout.

These data come from patent publication US20230173067A1 (Seagen Inc., priority 2020, published 2023).
